The text below walks through data of US11220483B2, “Tetrahydro-benzo[d]azepine derivatives as GPR120 modulators” (CALDAN THERAPEUTICS LIMITED, priority 2018, dated 2022).

The target in the test is T1, human GPR120 (Homo sapiens, UniProt Q5NUL3).
T1 construct: expressed in transfected cells; host or cells: HEK293T, transient transfection with PEI
T1 sequence (Q5NUL3 1-361): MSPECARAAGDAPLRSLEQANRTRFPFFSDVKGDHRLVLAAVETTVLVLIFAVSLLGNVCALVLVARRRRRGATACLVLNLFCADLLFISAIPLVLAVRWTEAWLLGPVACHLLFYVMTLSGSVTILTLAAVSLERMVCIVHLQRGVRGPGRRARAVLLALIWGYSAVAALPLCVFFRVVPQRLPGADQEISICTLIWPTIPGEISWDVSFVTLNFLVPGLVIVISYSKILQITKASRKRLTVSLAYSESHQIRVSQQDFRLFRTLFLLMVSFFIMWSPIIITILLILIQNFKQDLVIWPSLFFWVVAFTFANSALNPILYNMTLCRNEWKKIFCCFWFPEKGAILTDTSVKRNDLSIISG
Kind of test: Human GPR120-β Arrestin 2 BRET agonist assay. The format is cell-based. The following applies: HEK293T cells transiently co-expressing hGPR120-eYFP and β-arrestin 2-RLuc; BRET normalised to DMSO (0%) and TUG-891 (100%); read-out: hGPR120 pEC50 (converted). Here is the method:
pEC50 data was obtained by the following procedure:
Human GPR120-β Arrestin 2 Bio-Luminescence Resonance Energy Transfer (BRET) Agonist Assay Procedure
HEK293T cells were cultured in growth media composed of DMEM L-glutamine media supplemented with 10% (v:v) fetal bovine serum (FBS) and 1% (v:v) 10,000 units penicillin/10 mgml^−1 streptomycin at 37° C., 5% CO2. HEK293T cells transiently co-expressing human GPR120 […] and b-arrestin 2 were generated by transfection with plasmids encoding a construct of hGPR120 […] fused at its C terminal with enhanced yellow fluorescent protein (eYFP), and another encoding β-arrestin 2 fused to Renilla luciferase (RLuc), using Polyethylenimine (PEI) as the transfection reagent.
Transfected cells were cryopreserved in batches for consistency between replicate assays. Twenty-four hours post transfection, cells were harvested with non-enzymatic cell dissociation buffer and re-suspended in DMEM medium supplemented with 10% DMSO and 10% FBS before being transferred first to −80° C. overnight and then to liquid nitrogen for long-term storage. On the day prior to the assay, cells were thawed at 37° C. and re-suspended in growth media. A 96 well white opaque bottom microtitre plate was then seeded with 40,000 cells in a volume of 100 μl growth media per well and seeded plates were then incubated overnight at 37° C., 5% CO2. On the day of the BRET experiment, cells were washed twice with BRET assay buffer (Hanks balanced salt solution (HBSS) supplemented with 10 mM HEPES (pH 7.4)), then 80 μl per well of BRET assay buffer was added before the plate was incubated for 30 minutes at 37° C., 5% CO2. Then, Renilla luciferase substrate coelenterazine h (5 μM) was added to the cells and incubated at 37° C. for 10 minutes before the addition of GPR120 agonist (TUG-891) or test compound for a further 5 minutes at 37° C.
Bio-luminescence at λ 535 nm and λ 475 nm was then measured with a Pherastar FsX instrument, and the λ 535/λ 475 ratio of bio-luminescence was then used to calculate a BRET value. hGPR120 agonist potency values (pEC50) were calculated by normalising the BRET values to the DMSO vehicle (0% control) and TUG-891 (100% control) and then fitting the normalised data to a 3-parameter concentration-response curve.
For orientation: Bioluminescence resonance energy transfer reports proximity on the nanometre scale.

As to `CC(Cc1ccc2c(c1)CCN(c1cc(OC(F)(F)F)ccc1F)C2)C(=O)O` (centres unmarked) [Compound 26, 3-(2-(2-Fluoro-5-(trifluoromethoxy)phenyl)-1,2,3,4-tetrahydroisoquinolin-6-yl)-2-methylpropanoic Acid], the EC50 is 79.4 nM.
Next, `CC(C)Oc1cccc(N2CCc3cc(CCC(=O)O)ccc3C2)c1` [Compound 28, 3-(2-(3-Isopropoxyphenyl)-1,2,3,4-tetrahydroisoquinolin-6-yl)propanoic Acid]: 501 nM.
Next, `COc1ccc(Cl)cc1N1CCc2cc(CCC(=O)O)ccc2C1` [Compound 29, 3-(2-(5-chloro-2-methoxyphenyl)-1,2,3,4-tetrahydroisoquinolin-6-yl)propanoic acid]: 1000 nM.
Next, `Cc1cc(C)cc(N2CCc3ccc(CCC(=O)O)cc3C2)c1` [Compound 30, 3-(2-(3,5-dimethylphenyl)-1,2,3,4-tetrahydroisoquinolin-7-yl)propanoic Acid]: 1580 nM.
With `COc1cc(Cl)cc(N2CCc3ccc(CCC(=O)O)cc3C2)c1` [Compound 31, 3-(2-(3-chloro-5-methoxyphenyl)-1,2,3,4-tetrahydroisoquinolin-7-yl)propanoic acid], the EC50 is 2510 nM.
`O=C(O)CCc1ccc2c(c1)CN(c1cc(OC(F)(F)F)ccc1F)CC2` [Compound 33]: the EC50 was 1260 nM.
Regarding `O=C(O)C1CC1c1ccc2c(c1)CCN(c1cc(OC(F)(F)F)ccc1F)C2` (centres unmarked) [Compound 35, 2-(2-(2-fluoro-5-(trifluoromethoxy)phenyl)-1,2,3,4-tetrahydroisoquinolin-6-yl)cyclopropane-1-carboxylic acid], the EC50 was 100 nM.
The result for `O=C(O)C1CC1c1ccc2c(c1)CCN(c1cc(OC3CCC3)cc(F)c1F)C2` (centres unmarked) [Compound 36, 2-(2-(5-cyclobutoxy-2,3-difluorophenyl)-1,2,3,4-tetrahydroisoquinolin-6-yl)cyclopropane-1-carboxylic acid] reads 100 nM; that for `O=C(O)C1CC1c1ccc2c(c1)CCN(c1nc(OC3CCC3)ccc1F)C2` (centres unmarked) [Compound 37, 2-(2-(6-cyclobutoxy-3-fluoropyridin-2-yl)-1,2,3,4-tetrahydroisoquinolin-6-yl)cyclopropane-1-carboxylic acid], 39.8 nM; that for `O=C(O)C1CC1c1ccc2c(c1)CCN(c1cccc(Oc3ccccc3)c1)C2` (centres unmarked) [Compound 38, 2-(2-(3-Phenoxyphenyl)-1,2,3,4-tetrahydroisoquinolin-6-yl)cyclopropanecarboxylic Acid], 63.1 nM.
Next, `O=C(O)CCc1cc2c(cc1F)CN(c1cc(OC3CCC3)ccc1F)CC2` [Compound 39, 3-(2-(5-cyclobutoxy-2-fluorophenyl)-7-fluoro-1,2,3,4-tetrahydroisoquinolin-6-yl)propanoic Acid]: 63.1 nM; `O=C(O)CCc1cc(F)c2c(c1)CCN(c1cc(OC(F)(F)F)ccc1F)C2` [Compound 40, 3-(8-fluoro-2-(2-fluoro-5-(trfluoromethoxy)phenyl)-1,2,3,4-tetrahydroisoquinolin-6-yl)propanoic acid]: 31.6 nM.
The result for `O=C(O)CCc1cc(F)c2c(c1)CCN(c1cccc(Oc3ccccc3)c1)C2` [Compound 41, 3-(8-fluoro-2-(3-phenoxyphenyl)-1,2,3,4-tetrahydroisoquinolin-6-yl)propanoic acid] reads 31.6 nM; that for `O=C(O)CCc1cc2c(cc1F)CN(c1cc(F)cc(OC3CCC3)c1)CC2` [Compound 42, 3-(2-(3-Cyclobutoxy-5-fluorophenyl)-7-fluoro-1,2,3,4-tetrahydroisoquinolin-6-yl)propanoic Acid], 316 nM; that for `O=C(O)CCc1ccc2c(c1)CCN(c1cc(Cl)cc(OC3CCC3)c1)C2` [Compound 43, 3-(2-(3-chloro-5-cyclobutoxyphenyl)-1,2,3,4-tetrahydroisoquinolin-6-yl)propanoic acid], 20 nM.
Take `O=C(O)CCc1ccc2c(c1)CCN(c1nc(OC3CCC3)c(F)cc1F)C2` [Compound 44, 3-(2-(6-Cyclobutoxy-3,5-difluoropyridin-2-yl)-1,2,3,4-tetrahydroisoquinolin-6-yl)propanoic Acid]: the EC50 was 25.1 nM.
Take `O=C(O)CCc1ccc2c(c1)CCN(c1cc(OC(F)(F)F)ccc1F)CC2` [Compound 45, 3-(3-(2-fluoro-5-(trifluoromethoxy)phenyl)-2,3,4,5-tetrahydro-1H-benzo[d]azepin-7-yl)propanoic Acid]: the EC50 was 25.1 nM.
Take `O=C(O)CCc1ccc2c(c1)CCN(c1cc(OC3CCC3)ccc1F)CC2` [Compound 46, 3-(3-(5-cyclobutoxy-2-fluorophenyl)-2,3,4,5-tetrahydro-1H-benzo[d]azepin-7-yl)propanoic acid]: the EC50 is 79.4 nM.
Next, `O=C(O)CCc1ccc2c(c1)CCN(c1cc(OC3CC3)ccc1F)CC2` [Compound 47, 3-(3-(5-cyclopropoxy-2-fluorophenyl)-2,3,4,5-tetrahydro-1H-benzo[d]azepin-7-yl)propanoic acid]: 158 nM.
For the compound `CC(C)Oc1ccc(F)c(N2CCc3ccc(CCC(=O)O)cc3CC2)c1` [Compound 48, 3-(3-(2-fluoro-5-isopropoxyphenyl)-2,3,4,5-tetrahydro-1H-benzo[d]azepin-7-yl)propanoic acid], the EC50 was 200 nM.
`CC(C)Oc1cc(F)cc(N2CCc3ccc(CCC(=O)O)cc3CC2)c1` [Compound 49, 3-(3-(3-fluoro-5-isopropoxyphenyl)-2,3,4,5-tetrahydro-1H-benzo[d]azepin-7-yl)propanoic acid]: the EC50 was 398 nM.
The result for `O=C(O)CCc1ccc2c(c1)CCN(c1cc(Oc3ccccc3)ccc1F)CC2` [Compound 50, 3-(3-(2-fluoro-5-phenoxyphenyl)-2,3,4,5-tetrahydro-1H-benzo[d]azepin-7-yl)propanoic acid] reads 25.1 nM.
Next, `C[C@H](Cc1ccc2c(c1)CCN(c1cc(OC(F)(F)F)ccc1F)CC2)C(=O)O` [Compound 51, (R)-3-(3-(2-fluoro-5-(trifluoromethoxy)phenyl)-2,3,4,5-tetrahydro-1H-benzo[d]azepin-7-yl)-2-methylpropanoic Acid]: 501 nM.
Next, `O=C(O)C1CC1c1ccc2c(c1)CCN(c1cc(OC(F)(F)F)ccc1F)CC2` (centres unmarked) [Compound 52, 2-(3-(2-fluoro-5-(trifluoromethoxy)phenyl)-2,3,4,5-tetrahydro-1H-benzo[d]azepin-7-yl)cyclopropanecarboxylic Acid]: 126 nM; `O=C(O)C1CC1c1ccc2c(c1)CCN(c1cc(OC3CCC3)ccc1F)CC2` (centres unmarked) [Compound 53]: 100 nM.
With `O=C(O)CCc1ccc2c(c1)CCCN(c1cc(OC(F)(F)F)ccc1F)C2` [Compound 54, 3-(2-(2-Fluoro-5-(trifluoromethoxy)phenyl)-2,3,4,5-tetrahydro-1H-benzo[c]azepin-7-yl)propanoic Acid], the EC50 was 200 nM.
